Patent publication US7358263B2, “Fused bicyclic-substituted amines as histamine-3 receptor ligands” (Abbott Laboratories, priority 2006, dated 2008)

melting point: 70 to 72 °C
Structure (SMILES): C[C@@H]1CCCN1CCc1nc2cc(-c3ccc(C#N)cc3)ccc2o1 [Example 24E, 4-{2-[2-(2-(R)-methyl-pyrrolidin-1-yl)-ethyl]-benzooxazol-5-yl}-benzonitrile]
